Assay results from patent publication US4568689A, “Pharmaceutical preparation for the treatment of hypertensive disease and myocardial infarction” (priority 1983, dated 1986).
Entries after “also recorded” stand apart in the source; their conditions may differ.

What was measured:
[1] = system: neoepinephrine model of infarction (focal necrosis) of myocardium in rats; assay: survival of rats with the neoepinephrine model of infarction; type: in vivo, rats of the Wistar line; conditions: 25 mg/kg subcutaneously, 7 days
Method: The study of the effect produced by the preparation according to the present invention on survival of animals with a neoepinephrine model of infarction was effected in comparison with the prior art preparations--obzidan and finoptin.
The formation of a neoepinephrine model of infarction (focal necrosis) of myocardium in rats was effected by way of an every-day subcutaneous administration of a 0.1% solution of neoepinephrine in the dose of 3 mg/kg for 7 days to rats of the Wistar line with a mass of 160-200 g. The test preparations were subcutaneously administered to the rats in the form of a 1.25% aqueous solution in the dose of 25 mg/kg 0.5 hour after injection of neoepinephrine also for 7 days.

[2] = system: arterial pressure of spontaneously hypertensive rats; assay: effect of the oral form on arterial pressure, spontaneously hypertensive rats; type: in vivo
[3] = system: experimental necrosis of myocardium caused by introduction of adrenaline; assay: histological analysis of experimental necrosis of myocardium caused by adrenaline; type: in vivo, rats of the Wistar line
Method: A comparative study of the effects produced by the preparation according to the present invention and finoptin on an experimental necrosis of myocardium caused by introduction of adrenaline.
The experiments were carried out on rats of the Wistar line of gregarious keeping, both sexes, with a mass of 170 to 225 g. Each preparation was studied on a separate group of animals: (group of adrenaline-control, group of finoptin, group of the preparation according to the present invention). 72 rats were used in the experiments altogether. Injuries of myocardium were caused by way of a single-time subcutaneous administration of a 0.1% solution of adrenaline hydrochloride in the dose of 3 mg per kg of the rat's bodyweight. […] The preparation of this invention was administered subcutaneously, finoptin-per os. On the first day of the experiment the preparations were administered 30 minutes after injection of adrenaline hydrochloride. The experiment lasted for 19 days. Slaughters were effected on the 4th, 8th, 12th and 19th day of the experiment. The animals were decapitated. The heart was fixed in a 10% solution of neutral formalin and sealed in paraffin. Serial sections with the thickness of 5-6μ were coloured by Ehrlich hematoxylin-eosin. The state of vessels of myocardium, cardiomyocytes and interstitial tissue were evaluated by histological analysis.

[4] = side effects or contraindications on administration
[5] = system: arterial pressure and vegetative responses in narcotized animals; assay: arterial pressure, breathing and electrocardiogram in narcotized cats, intravenous; type: in vivo
Method: The effect of the pharmaceutical preparation according to the present invention on the arterial pressure and vegetative responses was studied in acute experiments on cats with a mass of 2.8-4.0 kg narcotized with α-glucochloralose (90 mg/kg) and urethane (100 mg/kg, intraperitoneally). The breathing, arterial pressure in the common carotid artery and electrocardiogram of the second standard lead were recorded.
The influence of the preparation according to the present invention on hemodynamic effects of acetylcholine (0.1 μg/kg) neoepinephrine (0.2 μg/kg), noradrenaline (1 μg/kg), histamine (1.5 μg/kg) and angiotensin (0.1 μg/kg) was also studied. The preparation of this invention was intravenously administered in the form of a 2.5% solution in doses of 0.5 to 10 mg/kg. The peripheral part of the vagus nerve was irritated by supromaximum pulses with the frequency of 30 Hz and duration of 0.1 ms.

in vivo = conditions: mouse, ip
Method: (§1) Acute toxicity measurements were carried out in experiments on white mongrel mice upon intraperitoneal administration.

white mongrel mice = assay: in vivo; conditions: mouse, ip
Method: as §1

[6] = 4th day, grade/number of animals (6)
[7] = 8th day, grade/number of animals (6)
[8] = 12th day, grade/number of animals (6)
[9] = 19th day, grade/number of animals (5)

## C[N+]1(C)CC(CC(=O)[O-])C(=O)N1 (stereo not drawn) [Preparation of this invention, (1,1-dimethyl-3-oxopyrazolin-1-io-4-yl)acetate]
[1]; after 19 days
  Percentage of survival: 92%
[1]; groups initially 12 animals
  Number of survived animals after 19 days: 11
[2]; 50 mg/kg per os, 30 minutes
  Variation of arterial pressure, diastolic: -10 % of the initial
  Variation of arterial pressure, systolic: -3 % of the initial
[2]; 50 mg/kg per os, 1 hour
  Variation of arterial pressure, diastolic: +2 % of the initial
[2]; 50 mg/kg per os, 2 hours
  Variation of arterial pressure, diastolic: -8 % of the initial
  Variation of arterial pressure, systolic: -5 % of the initial
[2]; 50 mg/kg per os, 4 hours
  Variation of arterial pressure, diastolic: -3 % of the initial
[2]; 50 mg/kg per os, 24 hours
  Variation of arterial pressure, diastolic: -2 % of the initial
  Variation of arterial pressure, systolic: -7 % of the initial
[2]; 75 mg/kg per os, 30 minutes
  Variation of arterial pressure, diastolic: -12 % of the initial
  Variation of arterial pressure, systolic: -16 % of the initial
[2]; 75 mg/kg per os, 2 hours
  Variation of arterial pressure, systolic: -18 % of the initial
[2]; 75 mg/kg per os, 4 hours
  Variation of arterial pressure, diastolic: -11 % of the initial
  Variation of arterial pressure, systolic: -8 % of the initial
[2]; 75 mg/kg per os, 24 hours
  Variation of arterial pressure, diastolic: -22 % of the initial
  Variation of arterial pressure, systolic: -20 % of the initial
[2]; 75 mg/kg per os, 24 hours after administration
  stable reduction of the arterial pressure: about 20%
[2]; 100 mg/kg per os, 30 minutes
  Variation of arterial pressure, diastolic: -11 % of the initial
  Variation of arterial pressure, systolic: -13 % of the initial
[2]; 100 mg/kg per os, 2 hours
  Variation of arterial pressure, diastolic: -7 % of the initial
  Variation of arterial pressure, systolic: -8 % of the initial
[2]; 100 mg/kg per os, 4 hours
  Variation of arterial pressure, diastolic: -13 % of the initial
  Variation of arterial pressure, systolic: -13 % of the initial
[2]; 100 mg/kg per os, 24 hours
  Variation of arterial pressure, systolic: -12 % of the initial
[3]; 4th day, 25 mg/kg
  changes in cardiomyocytes: The granular-lumpy decomposition, necrosis of 3-5 cells is observed in a half of the investigated animals
  changes in interstitial tissue: The formation of granulomae on the side of the interstitial tissue is observed in all of the animals
  changes in vessels: the left ventricle capillaries are plethoric. In two cases insignificant infiltrations of the adventitia with lymphoid cells are observed
[3]; [6]
  edema (interstitial tissue): 0/6
  necrobiotic regions in the wall: 0/6
  necrosis of more than 5 cells: 0/6
  wall necrosis (vessels): 0/6
[3]; 4th, 8th, 12th and 19th day
  overall therapeutic effect on the myocardium: possesses a clearly manifested therapeutic effect allowing no significant changes in the myocardium, prevents the growth of the scarring tissue, contributes to the restoration of morphological structures of the myocardium
[3]; 8th day, 25 mg/kg
  changes in interstitial tissue: the formation of the scarring tissue is to a lesser extent than in the control group
  changes in vessels: the coronary vessels are without changes; in some cases insignificantly plethoric vessels and changes in cells in the form of swelling are observed
[3]; [7]
  diffusive round-cell infiltration: 0/6
  edema (interstitial tissue): 0/6
  infiltration of the adventitia with lymphoid cells: 0/6
  necrobiotic regions in the wall: 0/6
  necrosis of more than 5 cells: 0/6
  nuclei (pyknosis): 0/6
  wall necrosis (vessels): 0/6
[3]; 12th day, 25 mg/kg
  changes in cardiomyocytes: In comparison with the 8th day of the experiment eosinophilia and contructure type changes are decreased
  changes in interstitial tissue: the scarring tissue formation is more distinctly pronounced. These changes are substantially less revealed than the changes in the control group (adrenaline)
  changes in vessels: an insignificant plethora of the vessels is observed on the 12th day of the experiment
[3]; [8]
  Nuclei (pykhnosis): 0/6
  diffusive round-cell infiltration: 0/6
  edema (interstitial tissue): 0/6
  infiltration of the adventitia with lymphoid cells: 0/5
  necrobiotic regions with changes in the vessel wall: 0/6
  necrosis of more than 5 cells: 0/6
  wall necrosis (vessels): 0/6
[3]; 19th day, 25 mg/kg
  changes in cardiomyocytes: In half of the animals the granular-lumpy decomposition is less pronounced. Necrosis of individual cells and eosinophilia, as well as contructure type changes are also observed
  changes in connective tissue: a less pronounced formation of the scarring tissue is to be noted as compared to the control group
  changes in vessels: By the 19th day this phenomena becomes more clearly pronounced; also recorded: no changes were noticed on the part of the coronary vessels. The plethora of capillaries in the left ventricle wall is noticed
[3]; [9]
  changes in the endothelium: 0/5
  infiltration of the adventitia with lymphoid cells: 0/5
  necrobiotic regions with changes in the vessel wall: 0/5
  necrosis of more than 5 cells: 0/5
  nuclei (pyknosis): 0/5
[4]
  side effects or contraindications: No side effects or contraindications
[5]; 5 mg/kg intravenously
  Variation of arterial pressure: -16%
[5]; in vivo
  peripheral resistance: reduction of peripheral resistance
[5]; intravenously, 0.5 to 10 mg/kg
  effect on breathing and electrocardiogram: does not substantially affect the breathing and electrocardiogram of the animals
In vivo
  LD50: 2240 mg/kg
White mongrel mice
  LD50: 2,239 (1,279-3,917) mg/kg
